In BigSolDB 2.1:

COc1cc([N+](=O)[O-])c(OC)cc1Cl
solubility (mole fraction) (in 1-methoxy-2-propanol, 282.2 K): 0.00313 | solubility (mole fraction) (in 1-methoxy-2-propanol, 287.1 K): 0.00354 | solubility (mole fraction) (in 1-methoxy-2-propanol, 291.6 K): 0.00392 | solubility (mole fraction) (in 1-methoxy-2-propanol, 296 K): 0.00428 | solubility (mole fraction) (in 1-methoxy-2-propanol, 300.3 K): 0.00466 | solubility (mole fraction) (in 1-methoxy-2-propanol, 304.6 K): 0.00648 | solubility (mole fraction) (in 1-methoxy-2-propanol, 309 K): 0.00937 | solubility (mole fraction) (in 1-methoxy-2-propanol, 313.1 K): 0.0123 | solubility (mole fraction) (in 1-methoxy-2-propanol, 317.2 K): 0.0154 | solubility (mole fraction) (in 1-methoxy-2-propanol, 321.3 K): 0.0191 | solubility (mole fraction) (in 1-methoxy-2-propanol, 325.7 K): 0.0258 | solubility (mole fraction) (in 2-ethoxyethanol, 276.7 K): 0.00187 | solubility (mole fraction) (in 2-ethoxyethanol, 280.8 K): 0.00226 | solubility (mole fraction) (in 2-ethoxyethanol, 284.9 K): 0.00266 | solubility (mole fraction) (in 2-ethoxyethanol, 289.1 K): 0.00307 | solubility (mole fraction) (in 2-ethoxyethanol, 293.2 K): 0.00347 | solubility (mole fraction) (in 2-ethoxyethanol, 297.3 K): 0.00389 | solubility (mole fraction) (in 2-ethoxyethanol, 301.4 K): 0.00502 | solubility (mole fraction) (in 2-ethoxyethanol, 305.5 K): 0.00638 | solubility (mole fraction) (in 2-ethoxyethanol, 309.6 K): 0.00874 | solubility (mole fraction) (in 2-ethoxyethanol, 314 K): 0.0139 | solubility (mole fraction) (in 2-ethoxyethanol, 320.6 K): 0.0193 | solubility (mole fraction) (in 2-ethoxyethanol, 327.1 K): 0.0237 | solubility (mole fraction) (in 2-methoxyethanol, 283.2 K): 0.00622 | solubility (mole fraction) (in 2-methoxyethanol, 290.9 K): 0.00838 | solubility (mole fraction) (in 2-methoxyethanol, 295.3 K): 0.00953 | solubility (mole fraction) (in 2-methoxyethanol, 299.4 K): 0.0107 | solubility (mole fraction) (in 2-methoxyethanol, 303.1 K): 0.0119 | solubility (mole fraction) (in 2-methoxyethanol, 306.8 K): 0.0146 | solubility (mole fraction) (in 2-methoxyethanol, 313 K): 0.0177 | solubility (mole fraction) (in 2-methoxyethanol, 317.9 K): 0.0201 | solubility (mole fraction) (in 2-methoxyethanol, 321.7 K): 0.0226 | solubility (mole fraction) (in 2-methoxyethanol, 325.8 K): 0.0282 | solubility (mole fraction) (in 2-methoxyethanol, 329.8 K): 0.0335 | solubility (mole fraction) (in diethylene glycol, 282.1 K): 0.000239 | solubility (mole fraction) (in diethylene glycol, 286.5 K): 0.000275 | solubility (mole fraction) (in diethylene glycol, 290.8 K): 0.000321 | solubility (mole fraction) (in diethylene glycol, 296.1 K): 0.000364 | solubility (mole fraction) (in diethylene glycol, 301.6 K): 0.000402 | solubility (mole fraction) (in diethylene glycol, 306.2 K): 0.00048 | solubility (mole fraction) (in diethylene glycol, 310.7 K): 0.000573 | solubility (mole fraction) (in diethylene glycol, 315.2 K): 0.000717 | solubility (mole fraction) (in diethylene glycol, 319.5 K): 0.000876 | solubility (mole fraction) (in diethylene glycol, 323.6 K): 0.00109 | solubility (mole fraction) (in diethylene glycol, 327.7 K): 0.00136

COc1cc(Cl)c(OC)cc1N
solubility (mole fraction) (in 1-methoxy-2-propanol, 277.4 K): 0.0208 | solubility (mole fraction) (in 1-methoxy-2-propanol, 281.6 K): 0.0267 | solubility (mole fraction) (in 1-methoxy-2-propanol, 289.4 K): 0.0327 | solubility (mole fraction) (in 1-methoxy-2-propanol, 294.3 K): 0.0369 | solubility (mole fraction) (in 1-methoxy-2-propanol, 298.5 K): 0.045 | solubility (mole fraction) (in 1-methoxy-2-propanol, 302.6 K): 0.0536 | solubility (mole fraction) (in 1-methoxy-2-propanol, 307.6 K): 0.0649 | solubility (mole fraction) (in 1-methoxy-2-propanol, 312.6 K): 0.0772 | solubility (mole fraction) (in 1-methoxy-2-propanol, 316.8 K): 0.089 | solubility (mole fraction) (in 1-methoxy-2-propanol, 320.9 K): 0.101 | solubility (mole fraction) (in 1-methoxy-2-propanol, 326.3 K): 0.125 | solubility (mole fraction) (in 2-ethoxyethanol, 278.6 K): 0.0282 | solubility (mole fraction) (in 2-ethoxyethanol, 283.5 K): 0.0322 | solubility (mole fraction) (in 2-ethoxyethanol, 287.6 K): 0.0361 | solubility (mole fraction) (in 2-ethoxyethanol, 291.7 K): 0.04 | solubility (mole fraction) (in 2-ethoxyethanol, 295.8 K): 0.0453 | solubility (mole fraction) (in 2-ethoxyethanol, 300.3 K): 0.0559 | solubility (mole fraction) (in 2-ethoxyethanol, 306.7 K): 0.0672 | solubility (mole fraction) (in 2-ethoxyethanol, 310.9 K): 0.0785 | solubility (mole fraction) (in 2-ethoxyethanol, 315 K): 0.0894 | solubility (mole fraction) (in 2-ethoxyethanol, 319.7 K): 0.1 | solubility (mole fraction) (in 2-ethoxyethanol, 323.9 K): 0.117 | solubility (mole fraction) (in 2-ethoxyethanol, 328 K): 0.138 | solubility (mole fraction) (in 2-methoxyethanol, 277.2 K): 0.0282 | solubility (mole fraction) (in 2-methoxyethanol, 281.1 K): 0.034 | solubility (mole fraction) (in 2-methoxyethanol, 285.5 K): 0.0427 | solubility (mole fraction) (in 2-methoxyethanol, 291.2 K): 0.0497 | solubility (mole fraction) (in 2-methoxyethanol, 295.3 K): 0.0549 | solubility (mole fraction) (in 2-methoxyethanol, 299.4 K): 0.06 | solubility (mole fraction) (in 2-methoxyethanol, 303.6 K): 0.0665 | solubility (mole fraction) (in 2-methoxyethanol, 307.7 K): 0.0768 | solubility (mole fraction) (in 2-methoxyethanol, 312.1 K): 0.0884 | solubility (mole fraction) (in 2-methoxyethanol, 315.7 K): 0.0986 | solubility (mole fraction) (in 2-methoxyethanol, 319.6 K): 0.112 | solubility (mole fraction) (in 2-methoxyethanol, 324.2 K): 0.129 | solubility (mole fraction) (in diethylene glycol, 276.7 K): 0.0167 | solubility (mole fraction) (in diethylene glycol, 280.9 K): 0.0188 | solubility (mole fraction) (in diethylene glycol, 285.1 K): 0.021 | solubility (mole fraction) (in diethylene glycol, 289.4 K): 0.0233 | solubility (mole fraction) (in diethylene glycol, 295.5 K): 0.0279 | solubility (mole fraction) (in diethylene glycol, 299.6 K): 0.0312 | solubility (mole fraction) (in diethylene glycol, 303.8 K): 0.0346 | solubility (mole fraction) (in diethylene glycol, 307.9 K): 0.0396 | solubility (mole fraction) (in diethylene glycol, 312 K): 0.0447 | solubility (mole fraction) (in diethylene glycol, 316.5 K): 0.0512 | solubility (mole fraction) (in diethylene glycol, 320.8 K): 0.0584 | solubility (mole fraction) (in diethylene glycol, 325.3 K): 0.0675

COc1ccc(OC)c(N)c1
solubility (mole fraction) (in 1-methoxy-2-propanol, 276.6 K): 0.0204 | solubility (mole fraction) (in 1-methoxy-2-propanol, 279.7 K): 0.0255 | solubility (mole fraction) (in 1-methoxy-2-propanol, 282.8 K): 0.0306 | solubility (mole fraction) (in 1-methoxy-2-propanol, 285.9 K): 0.0382 | solubility (mole fraction) (in 1-methoxy-2-propanol, 289 K): 0.0512 | solubility (mole fraction) (in 1-methoxy-2-propanol, 292.1 K): 0.0675 | solubility (mole fraction) (in 1-methoxy-2-propanol, 295.2 K): 0.0867 | solubility (mole fraction) (in 1-methoxy-2-propanol, 298.3 K): 0.11 | solubility (mole fraction) (in 1-methoxy-2-propanol, 301.6 K): 0.14 | solubility (mole fraction) (in 1-methoxy-2-propanol, 305.1 K): 0.174 | solubility (mole fraction) (in 1-methoxy-2-propanol, 310.4 K): 0.211 | solubility (mole fraction) (in 1-methoxy-2-propanol, 314.7 K): 0.239 | solubility (mole fraction) (in 1-methoxy-2-propanol, 318.8 K): 0.281 | solubility (mole fraction) (in 1-methoxy-2-propanol, 322.9 K): 0.323 | solubility (mole fraction) (in 2-ethoxyethanol, 276.7 K): 0.0186 | solubility (mole fraction) (in 2-ethoxyethanol, 279.8 K): 0.0238 | solubility (mole fraction) (in 2-ethoxyethanol, 282.9 K): 0.029 | solubility (mole fraction) (in 2-ethoxyethanol, 286 K): 0.0369 | solubility (mole fraction) (in 2-ethoxyethanol, 289.1 K): 0.0481 | solubility (mole fraction) (in 2-ethoxyethanol, 292.2 K): 0.0635 | solubility (mole fraction) (in 2-ethoxyethanol, 295.3 K): 0.0834 | solubility (mole fraction) (in 2-ethoxyethanol, 298.4 K): 0.106 | solubility (mole fraction) (in 2-ethoxyethanol, 301.6 K): 0.135 | solubility (mole fraction) (in 2-ethoxyethanol, 304.7 K): 0.165 | solubility (mole fraction) (in 2-ethoxyethanol, 308.9 K): 0.199 | solubility (mole fraction) (in 2-ethoxyethanol, 313 K): 0.231 | solubility (mole fraction) (in 2-ethoxyethanol, 317.1 K): 0.262 | solubility (mole fraction) (in 2-ethoxyethanol, 321.4 K): 0.311 | solubility (mole fraction) (in 2-ethoxyethanol, 325.5 K): 0.371 | solubility (mole fraction) (in 2-methoxyethanol, 276.4 K): 0.0331 | solubility (mole fraction) (in 2-methoxyethanol, 280.5 K): 0.046 | solubility (mole fraction) (in 2-methoxyethanol, 284.6 K): 0.0617 | solubility (mole fraction) (in 2-methoxyethanol, 288.7 K): 0.0819 | solubility (mole fraction) (in 2-methoxyethanol, 292.8 K): 0.102 | solubility (mole fraction) (in 2-methoxyethanol, 296.9 K): 0.123 | solubility (mole fraction) (in 2-methoxyethanol, 301 K): 0.15 | solubility (mole fraction) (in 2-methoxyethanol, 305.1 K): 0.185 | solubility (mole fraction) (in 2-methoxyethanol, 309.2 K): 0.217 | solubility (mole fraction) (in 2-methoxyethanol, 313.4 K): 0.254 | solubility (mole fraction) (in 2-methoxyethanol, 316.6 K): 0.292 | solubility (mole fraction) (in diethylene glycol, 276.7 K): 0.00015 | solubility (mole fraction) (in diethylene glycol, 280.9 K): 0.000379 | solubility (mole fraction) (in diethylene glycol, 285 K): 0.000611 | solubility (mole fraction) (in diethylene glycol, 289.1 K): 0.000885 | solubility (mole fraction) (in diethylene glycol, 293.2 K): 0.00119 | solubility (mole fraction) (in diethylene glycol, 297.3 K): 0.00165 | solubility (mole fraction) (in diethylene glycol, 301.4 K): 0.00325 | solubility (mole fraction) (in diethylene glycol, 303.5 K): 0.00532 | solubility (mole fraction) (in diethylene glycol, 305.6 K): 0.00751 | solubility (mole fraction) (in diethylene glycol, 307.7 K): 0.015 | solubility (mole fraction) (in diethylene glycol, 309.8 K): 0.0248 | solubility (mole fraction) (in diethylene glycol, 311.9 K): 0.0458 | solubility (mole fraction) (in diethylene glycol, 314 K): 0.0704 | solubility (mole fraction) (in diethylene glycol, 316.1 K): 0.104 | solubility (mole fraction) (in diethylene glycol, 318.2 K): 0.14 | solubility (mole fraction) (in diethylene glycol, 320.7 K): 0.177 | solubility (mole fraction) (in diethylene glycol, 323.7 K): 0.216
